Experimental data published in patent US11919887B2, “Substituted tetrahydrofurans as modulators of sodium channels” (Vertex Pharmaceuticals Incorporated, priority 2019, dated 2024).

molecular target: human Nav 1.8 (Homo sapiens, UniProt Q9Y5Y9); assay: E-VIPR assay detecting and measuring Nav inhibition (HEK cells expressing truncated human Nav 1.8); assay type: cell-based; conditions: in the Absence of Human Serum in the E-VIPR Assay; read-out: IC50
Outline: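 HEK cells expressing truncated human Nav1.8, transduced with KIR2.1 BacMam, were loaded with CC2-DMPE/DiSBAC6(3) FRET dyes and tested under electrical stimulation (E-VIPR). Compounds were run as 11-point 3-fold dilutions, top 300 nM final, 0.625% DMSO, with or without 25% human serum.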

Chain of human Nav 1.8 (Q9Y5Y9 whole entry, looked up, the tested form may be a part): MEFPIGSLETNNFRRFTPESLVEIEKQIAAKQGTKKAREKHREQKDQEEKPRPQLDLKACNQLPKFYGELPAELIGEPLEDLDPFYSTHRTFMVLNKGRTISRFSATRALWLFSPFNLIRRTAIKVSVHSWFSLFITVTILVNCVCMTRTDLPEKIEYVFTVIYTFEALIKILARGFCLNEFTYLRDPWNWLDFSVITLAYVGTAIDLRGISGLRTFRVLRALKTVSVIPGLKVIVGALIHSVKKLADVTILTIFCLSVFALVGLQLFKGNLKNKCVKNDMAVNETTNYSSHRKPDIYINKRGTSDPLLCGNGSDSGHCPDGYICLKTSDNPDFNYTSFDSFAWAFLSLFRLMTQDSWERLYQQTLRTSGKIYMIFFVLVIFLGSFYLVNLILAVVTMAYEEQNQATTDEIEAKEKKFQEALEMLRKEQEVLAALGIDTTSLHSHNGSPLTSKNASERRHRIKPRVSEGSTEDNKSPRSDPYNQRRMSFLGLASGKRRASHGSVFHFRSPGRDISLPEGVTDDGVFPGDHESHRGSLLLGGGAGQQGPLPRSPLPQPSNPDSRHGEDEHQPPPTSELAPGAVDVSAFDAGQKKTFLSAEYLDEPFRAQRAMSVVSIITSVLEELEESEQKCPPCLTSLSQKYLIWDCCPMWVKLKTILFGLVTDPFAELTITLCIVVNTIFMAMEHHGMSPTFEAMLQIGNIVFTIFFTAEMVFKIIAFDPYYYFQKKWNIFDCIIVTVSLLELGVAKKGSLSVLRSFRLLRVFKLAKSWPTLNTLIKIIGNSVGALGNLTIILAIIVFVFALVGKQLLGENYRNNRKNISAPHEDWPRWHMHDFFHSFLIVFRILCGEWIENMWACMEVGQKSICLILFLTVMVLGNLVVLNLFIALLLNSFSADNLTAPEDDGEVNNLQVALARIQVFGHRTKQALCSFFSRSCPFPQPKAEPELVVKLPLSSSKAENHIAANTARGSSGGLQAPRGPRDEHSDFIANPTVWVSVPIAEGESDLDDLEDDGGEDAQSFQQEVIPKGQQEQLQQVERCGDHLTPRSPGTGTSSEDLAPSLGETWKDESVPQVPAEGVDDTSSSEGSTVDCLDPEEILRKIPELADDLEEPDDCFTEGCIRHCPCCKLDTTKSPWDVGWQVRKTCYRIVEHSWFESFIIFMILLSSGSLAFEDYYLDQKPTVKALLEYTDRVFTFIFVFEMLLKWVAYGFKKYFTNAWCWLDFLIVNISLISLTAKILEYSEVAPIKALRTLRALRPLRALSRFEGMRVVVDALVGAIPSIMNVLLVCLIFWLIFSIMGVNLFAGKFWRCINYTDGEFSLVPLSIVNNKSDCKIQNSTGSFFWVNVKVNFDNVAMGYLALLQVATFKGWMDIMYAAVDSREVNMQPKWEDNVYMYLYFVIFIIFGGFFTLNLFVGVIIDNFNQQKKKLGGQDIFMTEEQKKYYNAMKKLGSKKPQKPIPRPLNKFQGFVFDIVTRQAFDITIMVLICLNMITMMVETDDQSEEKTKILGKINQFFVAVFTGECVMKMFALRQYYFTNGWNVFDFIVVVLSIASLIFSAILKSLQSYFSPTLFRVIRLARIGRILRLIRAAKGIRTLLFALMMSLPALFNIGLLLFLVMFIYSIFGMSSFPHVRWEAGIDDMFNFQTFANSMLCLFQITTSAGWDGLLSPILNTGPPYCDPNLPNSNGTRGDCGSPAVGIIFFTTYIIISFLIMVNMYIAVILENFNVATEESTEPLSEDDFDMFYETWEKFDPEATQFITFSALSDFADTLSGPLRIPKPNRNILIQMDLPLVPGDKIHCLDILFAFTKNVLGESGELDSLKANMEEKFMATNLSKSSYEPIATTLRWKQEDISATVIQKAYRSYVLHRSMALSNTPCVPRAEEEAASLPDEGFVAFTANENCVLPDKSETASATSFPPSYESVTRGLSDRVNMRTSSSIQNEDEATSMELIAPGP

SMILES	IC50 [nM]
Cc1c([C@@H]2[C@@H](C(=O)Nc3ccnc(C(N)=O)c3)O[C@](C)(C(F)(F)F)[C@@H]2C)ccc(F)c1F (stereo in doubt) [Compound 131, rel-(2S,3R,4R,5S)-4-[[3-(3,4-difluoro-2-methyl-phenyl)-4,5-dimethyl-5-(trifluoromethyl)tetrahydrofuran-2-carbonyl]amino]pyridine-2-carboxamide]	> 1000
Cc1c([C@H]2[C@H](C(=O)Nc3ccnc(C(N)=O)c3)O[C@@](C)(C(F)(F)F)[C@H]2C)ccc(F)c1F (stereo in doubt) [Compound 132, rel-(2R,3S,4S,5R)-4-[[3-(3,4-difluoro-2-methyl-phenyl)-4,5-dimethyl-5-(trifluoromethyl)tetrahydrofuran-2-carbonyl]amino]pyridine-2-carboxamide]	< 10
Cc1c([C@@H]2[C@@H](C)[C@@](C)(C(F)(F)F)O[C@H]2C(=O)Nc2ccnc(C(N)=O)c2)ccc(F)c1F (stereo in doubt) [Compound 133, rel-(2R,3S,4R,5S)-4-[[3-(3,4-difluoro-2-methyl-phenyl)-4,5-dimethyl-5-(trifluoromethyl)tetrahydrofuran-2-carbonyl]amino]pyridine-2-carboxamide]	10 to 100
Cc1c([C@@H]2[C@@H](C(=O)Nc3ccnc(C(N)=O)c3)O[C@@](C)(C(F)(F)F)[C@H]2C)ccc(F)c1F (stereo in doubt) [Compound 134, rel-(2S,3R,4S,5R)-4-[[3-(3,4-difluoro-2-methyl-phenyl)-4,5-dimethyl-5-(trifluoromethyl)tetrahydrofuran-2-carbonyl]amino]pyridine-2-carboxamide]	100 to 1000
COc1nc(C(F)F)ccc1[C@H]1[C@H](C(=O)Nc2ccnc(C(N)=O)c2)O[C@@](C)(C(F)(F)F)[C@H]1C (stereo in doubt) [Compound 140, rel-(2R,3S,4S,5R)-4-[[3-[6-(difluoromethyl)-2-methoxy-3-pyridyl]-4,5-dimethyl-5-(trifluoromethyl)tetrahydrofuran-2-carbonyl]amino]pyridine-2-carboxamide]	10 to 100

same assay, conditions: in the Presence of Human Serum in the E-VIPR Assay; read-out: IC50

SMILES	IC50 [nM]
CC[C@]1(C(F)(F)F)C[C@@H](c2ccc(F)c(F)c2OC)[C@H](C(=O)Nc2ccnc(C(N)=O)c2)O1 (stereo in doubt) [Compound 64, rel-(2R,3S,5R)-4-[[3-(3,4-difluoro-2-methoxy-phenyl)-5-ethyl-5-(trifluoromethyl)tetrahydrofuran-2-carbonyl]amino]pyridine-2-carboxamide]	10 to 100
COc1cc(F)ccc1[C@H]1C[C@@](C)(C(F)(F)F)O[C@@H]1C(=O)Nc1ccnc(C(N)=O)c1 (stereo in doubt) [Compound 67, rel-(2S,3R,5S)-4-[[3-(4-fluoro-2-methoxy-phenyl)-5-methyl-5-(trifluoromethyl)tetrahydrofuran-2-carbonyl]amino]pyridine-2-carboxamide]	> 1000
COc1cc(F)ccc1[C@@H]1C[C@](C)(C(F)(F)F)O[C@H]1C(=O)Nc1ccnc(C(N)=O)c1 (stereo in doubt) [Compound 68, rel-(2R,3S,5R)-4-[[3-(4-fluoro-2-methoxy-phenyl)-5-methyl-5-(trifluoromethyl)tetrahydrofuran-2-carbonyl]amino]pyridine-2-carboxamide]	10 to 100
COc1c([C@@H]2[C@@H](C)[C@@](C)(C(F)F)O[C@H]2C(=O)Nc2ccnc(C(N)=O)c2)ccc(F)c1F (stereo in doubt) [Compound 96, rel-(2R,3S,4R,5S)-4-[[3-(3,4-difluoro-2-methoxy-phenyl)-5-(difluoromethyl)-4,5-dimethyl-tetrahydrofuran-2-carbonyl]amino]pyridine-2-carboxamide]	> 1000
COc1c([C@@H]2[C@@H](C(=O)Nc3ccnc(C(N)=O)c3)O[C@@](C)(C(F)F)[C@H]2C)ccc(F)c1F (stereo in doubt) [Compound 97, rel-(2S,3R,4S,5R)-4-[[3-(3,4-difluoro-2-methoxy-phenyl)-5-(difluoromethyl)-4,5-dimethyl-tetrahydrofuran-2-carbonyl]amino]pyridine-2-carboxamide]	> 1000
COc1c([C@@H]2[C@@H](C(=O)Nc3ccnc(C(N)=O)c3)O[C@](C)(C(F)F)[C@@H]2C)ccc(F)c1F (stereo in doubt) [Compound 98, rel-(2S,3R,4R,5S)-4-[[3-(3,4-difluoro-2-methoxy-phenyl)-5-(difluoromethyl)-4,5-dimethyl-tetrahydrofuran-2-carbonyl]amino]pyridine-2-carboxamide]	> 1000
COc1c([C@H]2[C@H](C(=O)Nc3ccnc(C(N)=O)c3)O[C@@](C)(C(F)F)[C@H]2C)ccc(F)c1F (stereo in doubt) [Compound 99, rel-(2R,3S,4S,5R)-4-[[3-(3,4-difluoro-2-methoxy-phenyl)-5-(difluoromethyl)-4,5-dimethyl-tetrahydrofuran-2-carbonyl]amino]pyridine-2-carboxamide]	> 1000
COc1c([C@H]2[C@@H](C)[C@@H](C)O[C@@H]2C(=O)Nc2ccnc(C(N)=O)c2)ccc(F)c1F (stereo in doubt) [Compound 107, rel-(2S,3R,4R,5R)-4-[[3-(3,4-difluoro-2-methoxy-phenyl)-4,5-dimethyl-tetrahydrofuran-2-carbonyl]amino]pyridine-2-carboxamide]	> 1000
COc1c([C@@H]2[C@H](C)[C@H](C)O[C@H]2C(=O)Nc2ccnc(C(N)=O)c2)ccc(F)c1F (stereo in doubt) [Compound 108, rel-(2R,3S,4S,5S)-4-[[3-(3,4-difluoro-2-methoxy-phenyl)-4,5-dimethyl-tetrahydrofuran-2-carbonyl]amino]pyridine-2-carboxamide]	100 to 1000
COc1c([C@H]2C[C@@H](C(F)(F)F)O[C@@H]2C(=O)Nc2ccnc(C(N)=O)c2)ccc(F)c1F (stereo in doubt) [Compound 109, rel-(2S,3R,5S)-4-[[3-(3,4-difluoro-2-methoxy-phenyl)-5-(trifluoromethyl)tetrahydrofuran-2-carbonyl]amino]pyridine-2-carboxamide]	> 1000
COc1c([C@@H]2C[C@H](C(F)(F)F)O[C@H]2C(=O)Nc2ccnc(C(N)=O)c2)ccc(F)c1F (stereo in doubt) [Compound 110, rel-(2R,3S,5R)-4-[[3-(3,4-difluoro-2-methoxy-phenyl)-5-(trifluoromethyl)tetrahydrofuran-2-carbonyl]amino]pyridine-2-carboxamide]	100 to 1000
COc1nc(C(F)(F)F)ccc1[C@@H]1[C@@H](C(=O)Nc2ccnc(C(N)=O)c2)O[C@](C)(C(F)(F)F)[C@@H]1C (stereo in doubt) [Compound 137, rel-(2S,3R,4R,5S)-4-[[3-[2-methoxy-6-(trifluoromethyl)-3-pyridyl]-4,5-dimethyl-5-(trifluoromethyl)tetrahydrofuran-2-carbonyl]amino]pyridine-2-carboxamide]	> 1000
COc1nc(C(F)(F)F)ccc1[C@H]1[C@H](C(=O)Nc2ccnc(C(N)=O)c2)O[C@@](C)(C(F)(F)F)[C@H]1C (stereo in doubt) [Compound 138, rel-(2R,3S,4S,5R)-4-[[3-[2-methoxy-6-(trifluoromethyl)-3-pyridyl]-4,5-dimethyl-5-(trifluoromethyl)tetrahydrofuran-2-carbonyl]amino]pyridine-2-carboxamide]	10 to 100
